row,melting point [°C],Structure (SMILES)
1,255 to 260,CS(=O)(=O)OCCn1c2ccc(O)cc2c2c3c(c(-c4c(Cl)cccc4Cl)cc21)C(=O)NC3=O
2,150 to 151,Clc1nc(Cl)nc(-c2cccn2Cc2ccccc2)n1
3,164,N#CCC(=O)c1ccc(Br)cc1
4,> 260,NC(Cc1c[nH]c2c(Br)cccc12)C(=O)O (stereo not given)
5,115 to 117,COc1cc(C(=O)COC(C)=O)ccc1O
6,80 to 83,COc1ccc(Cl)cc1C(=O)N(C)OC
7,164 to 165,CCOC(=O)C(=O)CC(=O)c1cn(Cc2ccc(F)cc2)c2c(Cl)cccc2c1=O
8,100 to 106,COC(=O)COc1ccc(CC2SC(=O)NC2=O)cc1 (stereo not given)
9,137 to 138,CC(C)(CC(=O)c1ccc(Cl)c(Cl)c1)C(=O)O
10,179 to 180,Cc1cc(Br)ccc1S(N)(=O)=O
11,100 to 102,CCOC(=O)Cc1ccc(NC(=O)C(NS(=O)(=O)c2ccc(Cl)cc2)C(C)C)cc1 (racemic)
12,165,COc1ccc(C(=O)C(=O)c2ccc(-c3ccc(F)cc3)s2)cc1C

# The remaining lines, values behind:
row,Structure (SMILES),melting point [°C]
1,COc1cc(Nc2cc3c(cc2Nc2ccccc2)C(=O)NC3=O)cc(OC)c1OC,203 to 205
2,c1ccc(COc2ccc(NC3Cc4ccccc4C3)cc2)cc1,72 to 75
3,COC(=O)C=Cc1cc(F)cc(Br)c1,95 to 96
4,CC1(CF)C=C(Br)c2cc([N+](=O)[O-])ccc2O1 (stereo not given),116 to 117
5,CC1(C)CC(=O)c2c(-c3ccccc3)cn(-c3ccccn3)c2C1,160 to 162
6,CCN(CC)c1ncc(C(=O)O)c2[nH]nc(C)c12,85 to 88
7,COc1ccccc1-c1cc(NC(=O)C2CCNCC2)ncn1,279 to 280
8,CC(=O)OCC1OC(F)C(OC(C)=O)C(OC(C)=O)C1OC(C)=O (stereo not given),68 to 69
9,CN(C)CCN(C(=O)c1ccc([N+](=O)[O-])cc1Br)c1ccnc2cc3c(cc12)OCO3,111 to 112
10,CC(C)C[C@H](NC(=O)[C@H](Cc1c[nH]cn1)NC(=O)C(CC(=O)NCCc1ccccc1)Cc1cccc2ccccc12)[C@@H](O)CCO (stereo not given in full),87 to 92
11,CCn1c(CCO)nc(N2CCc3ccccc3CC2)c(C#N)c1=O,114 to 115
12,CC1N=C(N2CCN(CCO)CC2)NN=C1c1ccccc1 (stereo not given),103 to 105
13,COc1ccc(Nc2nc3cc4c(cc3[nH]2)NC(=O)C4(C)C)cc1,286 to 288
14,Cc1c(N2CCN(Cc3ccccc3)C(C)C2)c(F)cc2c(=O)c(C(=O)O)cn(C3CC3)c12 (stereo not given),170 to 171
15,CS(=O)(=O)Nc1cc2occ(C#N)c(=O)c2cc1Oc1ccccc1,220
16,CCCN1N=C2C(=Cc3ccc(OC)cc3)CS(=O)(=O)CC2C1c1ccc(OC)cc1 (stereo not given),195 to 198
17,COC(=O)Cc1ccc(OCCNC(=O)C2Cc3ccccc3N2S(=O)(=O)c2ccc(-c3cc(C(F)(F)F)ccc3Cl)cc2)cc1 (stereo not given),60
18,COC(=O)[C@@H]1C[C@@H](OS(C)(=O)=O)CN1C(=O)C1(C)CC1,102 to 103
19,CCC1C(C)=NN=C(c2ccc(O)c(O)c2)c2cc(OC)c(O)cc21 (stereo not given),254 to 255
20,O=C(O)CCCCCCCc1nc(-c2ccccc2)c(-c2ccccc2)o1,82 to 83
21,Clc1ccccc1-c1ccc2nncn2c1,177 to 180
22,CC(C)c1cccc(C(C)C)c1N1C(=O)c2cccc3c(Oc4ccc(C(C)(C)CC(C)(C)C)cc4)ccc(c23)C1=O,217
23,CN1CCN(c2ccc(C(=O)NC3CCCNC(=O)C3)cc2)CC1 (stereo not given),232 to 234
24,N/N=C/c1ccc(-c2ncn(-c3ccc(OC(F)(F)F)cc3)n2)cc1,222 to 226
25,COC(=O)c1cc(I)c[nH]c1=O,190 to 192
26,CCCCCCCCC1C=CC(/C=C/c2ccc(C(=O)O)o2)=C2N=C3CCCC(C)(C)C3=C21 (stereo not given),115 to 117
27,CN1C(=O)C2C3C=CC(C3)C2(c2ccc([N+](=O)[O-])cc2)C1=O (stereo not given),163 to 167
28,NC(CCCl)C(=O)c1ccccc1 (stereo not given),44 to 46
